Experimental data: US12533300B2, “Self-assembling peptides in the prevention and treatment of cavitated carious lesions” (Credentis AG, priority 2019, dated 2026)

Assays:
[1] = Release profile of model substance Congo Red from dental materials into PBS (photometer, 500 nm); assay type: physicochemical
Procedure: As well-known to the person skilled in the art, a release profile of an agent, i.e. fluoride or self-assembling peptide, depends on the matrix of the material (Mousavinasab et al., 2009, Dent Res J (Isfahan) 6(2):75-81). In the following experiment, the release profile of a model substance mimicking self-assembling peptide, Congo Red, was assessed after the incorporation into the dental material. The material was prepared and applied as per instructions for use (IFU), usually describing the use of 0.5-0.75 mL of the respective products. To mimic the saliva, Phosphate Buffered Saline (PBS) was used. PBS matches the osmolarity and ion concentrations of the human body—it is isotonic. To mimic the constant saliva flux, the applied amount was placed in a solution equal to 1 h saliva flux, which is about 20 mL. The diffusion of the material was assessed at 500 nm with a photometer. Release Profile a) Preparation of Varnish (Duraphat) and Paro Amin Fluor Gelée • Per suppliers IFU, it is recommend to add 0.5-1 mL of the varnish to a carious site. The concentration of Congo Red was chosen to lead a distinct signal in the UV Vis. • Place 12 mg Congo Red in 2 mL Eppendorf tube • Add 2 mL of the varnish directly into the tube with a syringe • Mix Congo Red and varnish vigorously until content uniformity is reached • Pick up product with syringe • Place 0.5-0.75 ml of the product on a microscopic slide as a thin film—as recommended per IFU • Let it air dry—as per IFU b) Preparation of Lonofil (Glass Ionomer Restorative Material) • Place 12 mg Congo Red directly in a dental cup • Add 2 spoons of lonofil Plus as per IFU • Add 2 drops of water and mix as per IFU • Place amount of product on microscopic slide c) Incubation Prepare the PBS Solution with 1% EtOH for preservation • Place slide in 50 ml centrifugation tube • Add 20 mL of PBS • Place on rotating wheel d) Measurement and Calculation • Directly decant 1 mL of incubated fluid into UV-Cell • Measure at 500 nm, control/blank=PBS with 1% EthOH subtract control w/o Congo Red from measured value

[2] = Release profile of P11-4 from varnish and glass ionomer cement (280 nm); assay type: physicochemical
Procedure: The material was prepared and applied as per instructions for use (IFU), usually describing the use of 0.5-0.75 mL of the respective products. To mimic the saliva, Phosphate Buffered Saline (PBS) was used. PBS matches the osmolarity and ion concentrations of the human body—it is isotonic. To mimic the constant saliva flux, the applied amount was placed in a solution equal to 1 h saliva flux, which is about 20 mL. The diffusion of the material was assessed at 500 nm with a photometer.
Release Profile a) Preparation of Varnish (Duraphat) and Paro Amin Fluor Gelée • Per suppliers IFU, it is recommend to add 0.5-1 mL of the varnish to a carious site. The concentration of Congo Red was chosen to lead a distinct signal in the UV Vis. • Place 12 mg Congo Red in 2 mL Eppendorf tube • Add 2 mL of the varnish directly into the tube with a syringe • Mix Congo Red and varnish vigorously until content uniformity is reached • Pick up product with syringe • Place 0.5-0.75 ml of the product on a microscopic slide as a thin film—as recommended per IFU • Let it air dry—as per IFU b) Preparation of Lonofil (Glass Ionomer Restorative Material) • Place 12 mg Congo Red directly in a dental cup • Add 2 spoons of lonofil Plus as per IFU • Add 2 drops of water and mix as per IFU • Place amount of product on microscopic slide c) Incubation
Prepare the PBS Solution with 1% EtOH for preservation • Place slide in 50 ml centrifugation tube • Add 20 mL of PBS • Place on rotating wheel d) Measurement and Calculation • Directly decant 1 mL of incubated fluid into UV-Cell • Measure at 500 nm, control/blank=PBS with 1% EthOH subtract control w/o Congo Red from measured value
Example 7 was in essence carried out as Example 6, but with the self-assembling peptide P11-4, if not otherwise described. 12 mg of P11-4 (credentis AG), in monomeric form, were added to either the varnish Duraphat (Sample ID: AP) or the glass ionomer cement Aqua lonofil Plus (Sample ID BP) in the amounts and under the conditions described above. The incubation was carried out in a static manner at room temperature. Measurement was at 280 nm, and the control value for buffer without peptide was subtracted from the measured value.

[3] = Pulp capping with P11-4 solution under dental material; assay type: in vivo; details: exposed pulp covered with P11-4 solution (e.g., 100 μl, 10 mg/mL, pH 8) before Resin Composite
Procedure: A cavity exposing the pulp is excavated due to dental caries. The pulp is covered with P11-4 solution (e.g., 100 μl, 10 mg/mL, pH 8) before placing of a dental material, e.g., Resin Composite according to the manufacturer's instructions (e.g., application in layers and light curing, as appropriate).

[4] = Alkilzy et al., 2018; cited from earlier work

Compound	Time course of Congo Red release from glass ionomer cement ([1]; Aqua Ionofil Plus, FIG. 4A)	Speed of Congo Red release from varnish relative to glass ionomer cement ([1]; Duraphat versus Aqua Ionofil Plus, FIG. 4A)	Release of Congo Red from paro Amin Fluor Gelée ([1]; Sample 2, used for comparison, 20 mL PBS with 1% EtOH, FIG. 4B)	Release of Congo Red from varnish Duraphat ([1]; sample A1, 12 mg Congo Red in 2 mL varnish, 20 mL PBS with 1% EtOH, FIG. 4A)	Release of Congo Red from glass ionomer cement Aqua Ionofil Plus ([1]; sample B1, 12 mg Congo Red, 20 mL PBS with 1% EtOH, FIG. 4A)	Speed of P11-4 release from varnish relative to glass ionomer cement ([2]; Duraphat versus Aqua Ionofil Plus, FIG. 4C)	Release of P11-4 from varnish Duraphat ([2]; sample AP, 12 mg monomeric P11-4, static incubation at room temperature, FIG. 4C)	Release of P11-4 from glass ionomer cement Aqua Ionofil Plus ([2]; sample BP, 12 mg monomeric P11-4, static incubation at room temperature, FIG. 4C)	Amount of released peptide over time ([2]; varnish and glass ionomer cement, measured for several days)	Pulp symptoms (pulpitis) after pulp capping [3]	Effect on early carious lesions in combination with fluoride, compared to fluoride alone [4]
Nc1c(/N=N/c2ccc(-c3ccc(/N=N/c4cc(S(=O)(=O)O)c5ccccc5c4N)cc3)cc2)cc(S(=O)(=O)O)c2ccccc12 [Congo red, Congo Red]	constant and increases with time	quicker	released	released	released	–	–	–	–	–	–
P11-4: self-assembling peptide, sequence QQRFEWEFEQQ (P11-4)	–	–	–	–	–	quicker	slowly and substantially constantly released	slowly and substantially constantly released	increases with time	remains symptoms free	additional effect
